# Data as given in patent US5166135A, “Method for the control of pneumocystis carinii” (Merck & Company, Inc., priority 1991, dated 1992).
# Several values for one entry are separate records, joined by “and”; a condition that tells them apart may be missing. Equal entries are not always repeated. Numbered stars: 1 amine (or outer) side, 2 acyl side, 3 side chain; on linkers, the order of the positions; unused ones are H or OH. Bridge positions count the residues as written; N and C are the ends. Square brackets hold non-standard residues; d marks the D form. Peptide text beside a SMILES is read from it. * marks the point of attachment. ξ: configuration not given here. Orn(4R-OH,5R-OH) = O=C([C@H](C[C@@H](O)[C@@H](O)N[*:3])N[*:1])[*:2]; ξOrn(4R-OH,5R-OH) = O=C(C(C[C@@H](O)[C@@H](O)N[*:3])N[*:1])[*:2]; Tetradecanoyl(10R,12S-Me2) = CC[C@H](C)C[C@H](C)CCCCCCCCC(=O)*; hTyr(3S-OH,4S-OH) = N[C@H](C(=O)O)[C@H](O)[C@@H](O)c1ccc(O)cc1; ξhTyr(3S-OH,4S-OH) = NC(C(=O)O)[C@H](O)[C@@H](O)c1ccc(O)cc1; ξOrn(4,5-diOH) = O=C(C(CC(O)C(O)N[*:3])N[*:1])[*:2]; ξhTyr(βξ-OH,γξ-OH) = NC(C(=O)O)C(O)C(O)c1ccc(O)cc1; Pro(3S-OH,4S-Me) = C[C@H]1CN[C@H](C(=O)O)[C@H]1O; Benzoyl(4-octyloxy) = CCCCCCCCOc1ccc(C(=O)*)cc1; Gln(3R-OH) = NC(=O)C[C@@H](O)[C@H](N)C(=O)O; Linoleoyl = CCCCC/C=C\C/C=C\CCCCCCCC(=O)*; X1 = C[C@H]1CN([*:1])C(C(=O)[*:2])[C@H]1O; ξPro(3ξ-OH,4ξ-Me) = CC1CNC(C(=O)O)C1O; ξPro(4R-OH) = O=C(O)C1C[C@@H](O)CN1; Stearoyl = CCCCCCCCCCCCCCCCCC(=O)*; Hyp = O=C(O)[CH]1C[CH](O)CN1; ξT = CC(O)C(N)C(=O)O
# What was measured:
# P. carinii [1] = experiment: Long term (21 days) therapy study, rate of cyst clearance; type: in vivo
# Method: Pentamadine was administered intravenously daily at a dose of 10 mg/kg, 2.5 times the recommended dose for man. Compound IA was given twice daily intraperitonealy at 1.0 mg/kg.
# Solubility properties = type: physicochemical; details: methanol, ethanol, dimethylformamide, dimethyl sulfoxide, and the like
# [2] = system: Pneumocystis carinii cysts; experiment: 4-day treatment experiments, minimum effective dose for 90 percent clearance of cysts (Table III); type: in vivo; details: minimum effective dose for 90 percent clearance of cysts, six animals per dose level
# Method: When 4-day treatment experiments were carried out in a similar manner, but using different doses in order to determine the minimum effective dose for 90 percent clearance of Pneumocystis carinii cysts, the results shown on Table III were obtained (Six animals were used at each dose level.)
# P. carinii [3] = experiment: Prophylaxis study in immunosuppressed rats with latent P. carinii infections (Table IV); type: in vivo
# Method: In a study to test the effectiveness of these compounds as a potential prophylactic agent, rats with latent P. carinii infections were immunosuppressed with dexamethasone in drinking water to stimulate the development of acute PCP. During this immunosuppression period the animals were given daily subcutaneous injections of either 1 mg/kg of Compound IA or vehicle. After six weeks all animals were sacrificed. The number of cysts per lung was determined microscopically and the nuclei (trophozites)were quantitated using a specific DNA probe. From the following table (Table IV) it can be seen that the development of both cysts and trophozoite forms of P. carinii is prevented by daily treatments of Compound IA.
# P. carinii [4] = experiment: Immunosuppressed mice study, reduction of cysts (Table II); type: in vivo, C3 H/HeN mice; details: 2 mg/kg intraperitoneally twice daily for one week
# Excerpt: Male C3 H/HeN mice, weighing 22-24 grams each, were immunosuppressed by the addition of dexamethasone to the drinking water for six weeks to induce the development of P. carinii infections. To enhance the infections the mice were also maintained on a low protein diet. At the beginning of the seventh week, the mice were randomly divided into groups of 6. All groups continued to receive dexamethasone in the drinking water and low protein diet for the remainder of the study. Mice in each group were injected intraperitonially twice daily with 0.5 ml of a 10% DMSO solution as a vehicle control or the same cocktail containing drug to achieve a dose of 2 mg/kg. This procedure was continued for one week.
# At the end of the treatment period (a total of seven weeks of immunosuppression) the animals were sacrificed and the lung tissue removed. The tissue was then processed to determine the number of cysts for each animal.
# Pneumocystis carinii [5] = experiment: Similar rat study, 7 days treatment, antipneumocystis activity of Compound IBii and Compound IA; type: in vivo; details: rats, 2 mg/kg injected twice daily for 7 days; vehicle 10% DMSO
# Method: A similar rat study was conducted to determine the antipneumocystis activity of 1-[(4R,5R)-4,5-dihydroxy-N^2 -[4-(octyloxy)benzoyl]-L-iiornithine]echinocandin B (Compound IBii). After 6 weeks of immunosuppression the rats were injected twice daily for 7 days with vehicle alone, Compound IBii (2 mg/kg) or Compound IA (2 mg/kg) during which time immunosuppression was continued. At the end of the treatment period the animals were sacrificed and the number of cysts per lung determined. Compound IA reduced the number of cysts by >99% while Compound IBii reduced the cyst counts by approximately 84% (compared to the vehicle control, 10% DMSO).
# P. carinii [6] = experiment: In vivo testing of Compound IA and TMP-SMZ against P. carinii in immunosuppressed rats (Table I); set-up: species or system Sprague-Dawley rats
# Method: In a representative study employing Compound IA in rats, nine male Sprague-Dawley rats from a colony known to have latent P. carinii infections, weighting approximately 200 grams each, were immunosupressed by the addition of dexamethasone to the drinking water (2.0 mg/liter) for six weeks to induce the development of P. carinii infections. To enhance the infection the rats were also maintained on a low protein diet. At the beginning of the seventh week the rats were divided into three groups of three rats each. All three groups continued to receive dexamethasone in the drinking water and low protein diet throughout the remainder of the study. The rats in Group I were kept as untreated infected controls, those in Group II were injected intraperitoneally twice daily for two weeks with 0.5 ml of sterile dH2 O containing 2 mg of Compound IA, and those in Group III were treated with trimethoprim-sulfamethoxazole (TMP-SMZ) in the drinking water (208 mg TMP and 1.040 g of SMZ/liter) for two weeks, a known treatment for P. carinii infections. Two rats died early in the experiment. One was from group II (rat 72A) and the other from group III (rat 75A). It was not determined whether they died from Pneumocystis pneumonia. At the end of the two week treatment period (a total of eight weeks of immunosuppression) the animals were sacrificed and the lung tissue removed. The lungs from each animal were weighed, and then processed to determine the number of cysts and parasite nuclei for each animal.
# P. carinii [7] = experiment: Repeat rat experiment with larger number of rats, cysts per lung; type: in vivo; details: five rats Compound IA, six rats TMP-SMZ; DMSO control 5.8×10^5 to 3.1×10^7; limit of resolution 2.8×10^3
# Pneumocystis carinii [8] = experiment: Rat study of the 2-aminoethyl ether of tetrahydroechinocandin B, four days subcutaneous, four dose levels; type: in vivo, Sprague-Dawley rats; details: rats
# Method: In still another study, the antipneumocystis activity of a compound in wherein R^I is OH, R^II is OH, R^III is --CH2 CH2 NH2, R^I is OH, R^V is CH3, R^V is CH3, R is [drawing 21] preparation and structure in Example G) was determined. In this study, Sprague-Dawley rats (weighing approximately 250 g) were immunosuppressed with dexasone in the drinking water (2.0 mg/L) and maintained on a regular protein diet for 7 weeks to induce the development of pneumocystis pneumonia from a latent infection. Before drug treatment 2 rats were sacrificed to confirm the presence of Pneumocystis carinii pneumonia (PCP), both rats had infections. The remaining rats (weighing approximately 150 g) were distributed into groups of 6 and injected twice daily for four days subcutaneously with compound in 0.25 ml of vehicle (10% DMSO). The control groups received vehicle alone. All animals continued to receive dexasone in the drinking water and regular diet during the drug treatment period. At the completion of treatment all animals were sacrificed, the lungs were removed and processed, and the extent of disease determined by microscopic analysis of stained slides.
# Four dose levels of this compound were tested.
# [9] = 1 mg/kg s.c. daily for six weeks, P ≤ 0.002
# [10] = individual rats, after two weeks treatment
# [11] = individual rats, after two weeks: Compound IA 2 mg i.p. twice daily, or TMP-SMZ in drinking water
molecule,measurement,setting,value
"CC[C@H](C)C[C@H](C)CCCCCCCCC(=O)N[C@H]1C[C@@H](O)[C@@H](O)NC(=O)[C@@H]2[C@@H](O)[C@@H](C)CN2C(=O)[C@H]([C@H](O)CC(N)=O)NC(=O)[C@H]([C@H](O)[C@@H](O)c2ccc(O)cc2)NC(=O)[C@@H]2C[C@@H](O)CN2C(=O)[C@H]([C@@H](C)O)NC1=O [Compound IA] ({Tetradecanoyl(10R,12S-Me2)}-[Orn(4R-OH,5R-OH)]T[Hyp][hTyr(3S-OH,4S-OH)][Gln(3R-OH)][Pro(3S-OH,4S-Me)]; lactam 1-C)",extent of cyst clearance (reduction),"P. carinii [1]; Compound IA 1.0 mg/kg i.p. twice daily, compared with known agents at the two week time point",greater than 99%
same,time to elimination of cysts,P. carinii [1]; Compound IA 1.0 mg/kg intraperitoneally twice daily,≤ 4 days
same,solubility in organic solvents,Solubility properties,soluble
same,ED90,[2],0.2 mg/kg
same,Cysts Log Mean,"P. carinii [3]; 1 mg/kg s.c. daily for six weeks during immunosuppression, detection limit 4.66, control 7.76 ± 0.10",4.70 ± 0.04
same,Nuclei Log Mean,"P. carinii [3]; 1 mg/kg s.c. daily for six weeks, DNA probe, detection limit 4.66, control 7.50 ± 0.15",4.85 ± 0.05
same,Cysts Reduction,P. carinii [3]; [9],> 99.9%
same,Nuclei Reduction,P. carinii [3]; [9],99.8%
same,Mean Lung Wt.,"P. carinii [3]; 1 mg/kg s.c. daily for six weeks, P ≤ 0.002 vs control",1.81 ± .10 gms
same,Mean Body Wt.,"P. carinii [3]; 1 mg/kg s.c. daily for six weeks, control 147.1 ± 6.3",142.0 ± 4.2 gms
same,% Reduction of Cysts,P. carinii [4],> 99%
same,reduction of number of cysts per lung compared to vehicle control,Pneumocystis carinii [5],> 99%
same,CYST SCORE,P. carinii [6]; [10],0
same,LUNG WT.,P. carinii [6]; [10],2.83 gms and 1.40 gms
same,TOTAL NUCLEI per gm lung,P. carinii [6]; [11],7.4 × 10^8 and 7.1 × 10^8
same,TOTAL NUCLEI per lung,P. carinii [6]; [11],2.1 × 10^9 and 1.0 × 10^9
same,cysts in the lungs of treated rats,"P. carinii [6]; two weeks treatment, controls 3.2×10^8 -1.5×10^9",No cysts could be found
same,number of parasite nuclei (range over treated rats),"P. carinii [6]; two weeks treatment, controls 5.8×10^9 -1.4×10^10",1.0-2.1×10^9
same,number of cysts per lung (range over rats),P. carinii [7],3.2×10^3 to 2.6×10^4
"CCCCCCCCOc1ccc(C(=O)NC2C[C@@H](O)[C@@H](O)NC(=O)C3[C@@H](O)[C@@H](C)CN3C(=O)C(C(C)O)NC(=O)C([C@H](O)[C@@H](O)c3ccc(O)cc3)NC(=O)C3C[C@@H](O)CN3C(=O)C(C(C)O)NC2=O)cc1 (stereo partly drawn) [Compound IBii, 1-[(4R,5R)-4,5-dihydroxy-N^2-[4-(octyloxy)benzoyl]-L-ornithine]echinocandin B] ({Benzoyl(4-octyloxy)}-[ξOrn(4R-OH,5R-OH)][ξT][ξPro(4R-OH)][ξhTyr(3S-OH,4S-OH)][ξT][X1]; lactam 1-C)",ED90,[2],4.0 mg/kg
same,reduction of number of cysts per lung compared to vehicle control,Pneumocystis carinii [5],approximately 84%
"CCCCC/C=C\C/C=C\CCCCCCCC(=O)N[C@H]1C[C@@H](O)[C@@H](O)NC(=O)[C@@H]2[C@@H](O)[C@@H](C)CN2C(=O)[C@H]([C@@H](C)O)NC(=O)[C@H]([C@H](O)[C@@H](O)c2ccc(O)cc2)NC(=O)[C@@H]2C[C@@H](O)CN2C(=O)[C@H]([C@@H](C)O)NC1=O [Echinocandin B] (Linoleoyl-[Orn(4R-OH,5R-OH)]T[Hyp][hTyr(3S-OH,4S-OH)]T[Pro(3S-OH,4S-Me)]; lactam 1-C)",ED90,[2],1.2 mg/kg
same,% Reduction of Cysts,P. carinii [4],> 99%
"CCCCCCCCCCCCCCCCCC(=O)NC1CC(O)C(O)NC(=O)C2C(O)C(C)CN2C(=O)C(C(C)O)NC(=O)C(C(O)C(O)c2ccc(O)cc2)NC(=O)C2CC(O)CN2C(=O)C(C(C)O)NC1=O (stereo not drawn) [Tetrahydroechinocandin B (TEB), tetrahydroechinocandin B] (Stearoyl-[ξOrn(4,5-diOH)]T[Hyp][ξhTyr(βξ-OH,γξ-OH)]T[ξPro(3ξ-OH,4ξ-Me)]; lactam 1-C; configuration not given here)",ED90,[2],0.2 mg/kg
same,% Reduction of Cysts,P. carinii [4],99%
O-benzyltetrahydroechinocandin B [O-Benzyl-TEB],% Reduction of Cysts,P. carinii [4],99%
O-methyltetrahydroechinocandin B [O-Methyl-TEB],% Reduction of Cysts,P. carinii [4],> 99%
"Tetrahydroechinocandin-B, 2-aminoethyl Ether, Trifluoroacetate Salt [Example G]",ED90,[2],< 0.02 mg/kg
same,reduction of cysts,Pneumocystis carinii [8]; 18.25 μg/kg s.c. twice daily for four days,96%
same,reduction of cysts,Pneumocystis carinii [8]; 37.5 μg/kg s.c. twice daily for four days,98%
same,reduction of cysts,Pneumocystis carinii [8]; 75 μg/kg s.c. twice daily for four days,99%
same,reduction of cysts,Pneumocystis carinii [8]; 150 μg/kg s.c. twice daily for four days,99%
same,ED90,"Pneumocystis carinii [8]; s.c. twice daily for four days, cyst reduction",below 18.25 μg/kg
